Laboratory results from the NIST ThermoML archive (doi:10.1016/j.jct.2019.03.040).

Assays:
[1] = molar heat capacity at constant pressure; details: 101.33 kPa, Liquid, Small sample (50 mg) DSC
[2] = Liquid; for thermal diffusivity: 101.33 kPa, Laser flash apparatus

CCCCOC(=O)CCC(C)=O [butyl levulinate]
Details	Critical pressure [kPa]	Critical temperature [K]	molar heat capacity at constant pressure [J/K/mol]	thermal diffusivity [m2/s]
[1], 302.66 K	–	–	336.87	–
[1], 303.16 K	–	–	337.38	–
[1], 303.66 K	–	–	338.59	–
[1], 304.16 K	–	–	338.42	–
[1], 304.66 K	–	–	337.73	–
[1], 305.16 K	–	–	337.38	–
[1], 305.66 K	–	–	337.73	–
[1], 306.16 K	–	–	337.55	–
[1], 306.66 K	–	–	338.42	–
[1], 307.16 K	–	–	339.28	–
[1], 307.66 K	–	–	338.76	–
[1], 308.16 K	–	–	337.9	–
[1], 308.66 K	–	–	338.24	–
[1], 309.16 K	–	–	338.42	–
[1], 309.66 K	–	–	339.1	–
[1], 310.16 K	–	–	338.93	–
[1], 310.66 K	–	–	340.14	–
[1], 311.16 K	–	–	338.76	–
[1], 311.66 K	–	–	338.59	–
[1], 312.16 K	–	–	338.76	–
[1], 312.66 K	–	–	338.76	–
[1], 313.16 K	–	–	338.42	–
[1], 313.66 K	–	–	338.76	–
[1], 314.16 K	–	–	339.97	–
[1], 314.66 K	–	–	339.79	–
[1], 315.16 K	–	–	339.97	–
[1], 315.66 K	–	–	339.62	–
[1], 316.16 K	–	–	340.31	–
[1], 316.66 K	–	–	340.14	–
[1], 317.16 K	–	–	340.65	–
[1], 317.66 K	–	–	340.65	–
[1], 318.16 K	–	–	341.17	–
[1], 318.66 K	–	–	341	–
[1], 319.16 K	–	–	341.17	–
[1], 319.66 K	–	–	341	–
[1], 320.16 K	–	–	340.14	–
[1], 320.66 K	–	–	341.69	–
[1], 321.16 K	–	–	341.69	–
[1], 321.66 K	–	–	341	–
[1], 322.16 K	–	–	341	–
[1], 322.66 K	–	–	341.69	–
[1], 323.16 K	–	–	342.03	–
[1], 323.66 K	–	–	342.38	–
[1], 324.16 K	–	–	341.69	–
[1], 324.66 K	–	–	342.89	–
[1], 325.16 K	–	–	342.2	–
[1], 325.66 K	–	–	341.52	–
[1], 326.16 K	–	–	342.2	–
[1], 326.66 K	–	–	343.24	–
[1], 327.16 K	–	–	342.89	–
[1], 327.66 K	–	–	343.07	–
[1], 328.16 K	–	–	343.41	–
[1], 328.66 K	–	–	341.34	–
[1], 329.16 K	–	–	341.86	–
[1], 329.66 K	–	–	342.38	–
[1], 330.16 K	–	–	342.89	–
[1], 330.66 K	–	–	342.89	–
[1], 331.16 K	–	–	343.07	–
[1], 331.66 K	–	–	342.38	–
[1], 332.16 K	–	–	342.72	–
[1], 332.66 K	–	–	343.58	–
[1], 333.16 K	–	–	343.24	–
[1], 333.66 K	–	–	344.27	–
[1], 334.16 K	–	–	345.13	–
[1], 334.66 K	–	–	344.44	–
[1], 335.16 K	–	–	345.48	–
[1], 335.66 K	–	–	344.79	–
[1], 336.16 K	–	–	344.27	–
[1], 336.66 K	–	–	345.65	–
[1], 337.16 K	–	–	345.3	–
[1], 337.66 K	–	–	345.3	–
[1], 338.16 K	–	–	346.34	–
[1], 338.66 K	–	–	346.51	–
[1], 339.16 K	–	–	345.82	–
[1], 339.66 K	–	–	346.34	–
[1], 340.16 K	–	–	347.03	–
[1], 340.66 K	–	–	346.17	–
[1], 341.16 K	–	–	346.68	–
[1], 341.66 K	–	–	346.17	–
[1], 342.16 K	–	–	347.03	–
[1], 342.66 K	–	–	346.68	–
[1], 343.16 K	–	–	347.72	–
[1], 343.66 K	–	–	347.37	–
[1], 344.16 K	–	–	347.37	–
[1], 344.66 K	–	–	347.54	–
[1], 345.16 K	–	–	348.06	–
[1], 345.66 K	–	–	348.23	–
[1], 346.16 K	–	–	347.89	–
[1], 346.66 K	–	–	348.58	–
[1], 347.16 K	–	–	348.23	–
[1], 347.66 K	–	–	349.09	–
[1], 348.16 K	–	–	348.92	–
[1], 348.66 K	–	–	349.27	–
[1], 349.16 K	–	–	349.27	–
[1], 349.66 K	–	–	349.78	–
[1], 350.16 K	–	–	349.78	–
[1], 350.66 K	–	–	350.13	–
[1], 351.16 K	–	–	349.95	–
[1], 351.66 K	–	–	349.61	–
[1], 352.16 K	–	–	350.13	–
[1], 352.66 K	–	–	348.58	–
[1], 353.16 K	–	–	348.23	–
[1], 353.66 K	–	–	348.58	–
[1], 354.16 K	–	–	349.44	–
[1], 354.66 K	–	–	349.95	–
[1], 355.16 K	–	–	349.95	–
[1], 355.66 K	–	–	350.64	–
[1], 356.16 K	–	–	350.13	–
[1], 356.66 K	–	–	350.13	–
[1], 357.16 K	–	–	351.5	–
[1], 357.66 K	–	–	350.99	–
[1], 358.16 K	–	–	351.5	–
[1], 358.66 K	–	–	351.68	–
[1], 359.16 K	–	–	351.85	–
[1], 359.66 K	–	–	351.85	–
[1], 360.16 K	–	–	352.02	–
[1], 360.66 K	–	–	351.68	–
[1], 361.16 K	–	–	352.37	–
[1], 361.66 K	–	–	353.05	–
[1], 362.16 K	–	–	352.71	–
[1], 362.66 K	–	–	352.88	–
[1], 363.16 K	–	–	352.02	–
[1], 363.66 K	–	–	352.71	–
[1], 364.16 K	–	–	353.23	–
[1], 364.66 K	–	–	353.57	–
[1], 365.16 K	–	–	353.05	–
[1], 365.66 K	–	–	353.4	–
[1], 366.16 K	–	–	353.4	–
[1], 366.66 K	–	–	354.6	–
[1], 367.16 K	–	–	353.57	–
[1], 367.66 K	–	–	353.57	–
[1], 368.16 K	–	–	354.09	–
[1], 368.66 K	–	–	353.92	–
[1], 369.16 K	–	–	353.57	–
[1], 369.66 K	–	–	353.4	–
[1], 370.16 K	–	–	354.95	–
[1], 370.66 K	–	–	354.78	–
[1], 371.16 K	–	–	354.09	–
[1], 371.66 K	–	–	354.78	–
[1], 372.16 K	–	–	355.29	–
[1], 372.66 K	–	–	355.81	–
[1], 373.16 K	–	–	354.78	–
[1], 373.66 K	–	–	355.81	–
[1], 374.16 K	–	–	355.98	–
[2], 303.15 K	–	–	–	7.77e-08
[2], 313.15 K	–	–	–	7.68e-08
[2], 323.15 K	–	–	–	7.57e-08
[2], 333.15 K	–	–	–	7.48e-08
[2], 343.15 K	–	–	–	7.37e-08
[2], 353.15 K	–	–	–	7.26e-08
[2], 363.15 K	–	–	–	7.15e-08
[2], 373.15 K	–	–	–	7.06e-08
[2], Resistive pulse heating	2410	692	–	–
